# Where a name gives a salt, the structure may show the parent alone. Read-outs that look alike come from different tables or passages of the source.
# Experiments:
# [1] = system: E coli carrying specific resistance determinants; test: MIC by broth microdilution, E coli carrying specific resistance determinants; type: cell-based; details: for MIC AG003 E. coli AAC(3)-II: clinical isolate AG003, AAC(3)-II; for MIC: Escherichia coli
# [2] = system: A1555G mutant mitochondrial ribosome (human chimeric); test: in-vitro translation assay, human chimeric ribosomes, A1555G mutant mitochondrial decoding site; type: biochemical
# Excerpt: (§1) The antiribosomal activity of these compounds was investigated with cell-free translation assays using both wild type bacterial ribosomes and hybrid ribosomes carrying eukaryotic decoding A sites enabling the prediction of selectivity.
# MRSA = test: MIC by broth microdilution, MRSA isolates; type: cell-based; details: for MIC AG039 MRSA AAC(6′)-I ANT(4′)-I: clinical isolate AG039, AAC(6′)-I ANT(4′)-I; for MIC AG042 MRSA AAC(6′)-I ANT(4′)-I APH(2′): clinical isolate AG042, AAC(6′)-I ANT(4′)-I APH(2′); for MIC: Staphylococcus aureus, MRSA, Table 1 (Example 3)
# [3] = system: wild type bacterial ribosomes; test: in-vitro translation assay, bacterial ribosomes; type: biochemical
# Excerpt: as §1
# E coli wild type = test: MIC by broth microdilution, wild type E coli; type: cell-based; details: for MIC AG001 E. coli WT: clinical isolate AG001, WT; for MIC AG055 E. coli WT: clinical isolate AG055, WT; for MIC: Escherichia coli
# [4] = system: rabbit reticulocyte ribosomes; test: in-vitro translation assay, rabbit reticulocyte ribosomes; type: biochemical; details: mammalian cytosolic ribosomes (rabbit)
# [5] = system: mitochondrial ribosome (human chimeric); type: biochemical
# Excerpt: as §1
# M. smegmatis SZ380 = test: MIC by broth microdilution, M. smegmatis; details: for MIC: Mycolicibacterium smegmatis
# [6] = system: Klebsiella pneumonia AG215; test: MIC by broth microdilution, Klebsiella pneumonia; type: cell-based; details: strain AG215 Klebsiella pneumonia
# P aeruginosa = test: MIC by broth microdilution, P aeruginosa isolates; type: cell-based, Pseudomonas aeruginosa
# [7] = system: Acinetobacter baumannii pittii AG225; test: MIC by broth microdilution, Acinetobacter baumannii; type: cell-based; details: strain AG225 Acinetobacter baumannii pittii
# M. abscessus = test: MIC by broth microdilution, M. abscessus; type: cell-based; details: Mycobacteroides abscessus
# [8] = system: cytosolic ribosome (human chimeric); type: biochemical
# Excerpt: as §1
# [9] = system: Enterobacter cloacae AG290; test: MIC by broth microdilution, Enterobacter cloacae; type: cell-based; details: strain AG290 Enterobacter cloacae
# [10] = Mycobacterium smegmatis ribosomes, read-out: IC50 Bacterial
# [11] = ribosomes with a human mitochondrial decoding site, read-out: IC50 Mitoch.
structure (smiles),measurement,setting,value
NC[C@H]1O[C@H](O[C@H]2[C@H](O[C@@H]3O[C@H](CN)[C@@H](O)[C@H]3O)[C@@H](O)[C@H](N)C[C@@H]2N)[C@H](N)[C@@H](O)[C@@H]1O [DC048],MIC AG003 E. coli AAC(3)-II,[1],16 µg/mL
same,IC50,"[2]; human mitochondrial decoding site with A1555G point mutation, read-out: IC50 Mitoch. A1555G",34 µM
same,MIC AG038 MRSA,MRSA; clinical isolate AG038,8 µg/mL
same,MIC AG039 MRSA AAC(6′)-I ANT(4′)-I,MRSA,>64 µg/mL
same,MIC AG042 MRSA AAC(6′)-I ANT(4′)-I APH(2′),MRSA,>128 µg/mL
same,MIC AG044 MRSA,MRSA; clinical isolate AG044,8 to 16 µg/mL
same,IC50,[3]; [10],90 nM
same,MIC AG001 E. coli WT,E coli wild type,32 to 64 µg/mL
same,MIC AG055 E. coli WT,E coli wild type,32 µg/mL
same,IC50,[4],50 µM
same,IC50,[5]; [11],76 µM
"CNC1C(OC2C(N)CC(N)C(O)C2OC2OC(CO)C(OC3OC(CN)C(O)C(O)C3N)C2O)OC(CO)C(O)C1O (centres unmarked) [Compound 115, 2′-N-Methyl-paromomycin acetate salt]",MIC,[1]; read-out: MIC E coli AG106 AAC(2′),4 to 8 µg/mL
same,MIC,[1]; read-out: MIC E. coli AAC(2′) AG106,4 µg/mL
same,MIC,[1]; read-out: MIC E. coli AAC(2′) pH434,8 µg/mL
same,MIC,[1]; read-out: MIC E. coli AG106 AAC(2′)-Ia,4 µg/mL
same,MIC,[1]; read-out: MIC E. coli pGB2armA armA,4 to 8 µg/mL
same,MIC,[1]; read-out: MIC E. coli pH434 AAC(2′)-Ib,8 µg/mL
same,MIC,"M. smegmatis SZ380; SZ380, read-out: MIC M. smegmatis SZ380 WT, SZ380 WT, Table 5 (Example 3)",4 to 8 µg/mL
same,MIC,"M. smegmatis SZ380; SZ380, read-out: MIC SZ380 M. smegmatis, strain SZ380 Mycobacterium smegmatis",4 to 8 µg/mL
same,Selectivity for Binding to the Bacterial Ribosome over the Mutant Mitochondrial Ribosome,[2]; Table 3 (Example 3),1134
same,MIC,"[6]; Klebsiella pneumoniae, read-out: MIC AG215 K. pneumon",2 µg/mL
same,MIC,"P aeruginosa; strain AG220 Pseudomonas aeruginosa ATCC27853, read-out: MIC AG220 P. aerugin",> 64 µg/mL
same,MIC,"MRSA; clinical isolate AG038, read-out: MIC MRSA AG038",8 µg/mL
same,MIC,"MRSA; clinical isolate AG039, read-out: MIC MRSA AG039",> 128 µg/mL
same,MIC,"MRSA; clinical isolate AG042, read-out: MIC MRSA AG042",> 128 µg/mL
same,MIC,"MRSA; clinical isolate AG044, read-out: MIC MRSA AG044",4 µg/mL
same,IC50,"[3]; bacterial ribosome, Table 4 (Example 3), read-out: IC50 Bac",30 nM
same,"selectivity for the bacterial ribosome over mitochondrial (wild type, A1555G mutant) and cytosolic ribosomes, in words",[3]; compared with the parent compound,increased selectivity for the bacterial ribosome
same,MIC,[7],4 µg/mL
same,MIC,"M. abscessus; ATCC19977, ATCC 19977 WT, Table 5 (Example 3), read-out: MIC M. abscessus ATCC 19977 WT",16 µg/mL
same,MIC,M. abscessus; read-out: MIC M. abscessus engineered Δeis2,0.5 µg/mL
same,MIC,"M. abscessus; ATCC, Table 4 (Example 3), read-out: MIC M. abscessus ATCC",16 µg/mL
same,MIC,"M. abscessus; Clin. Isol., Table 4 (Example 3), read-out: MIC M. abscessus Clin. Isol.",32 µg/mL
same,MIC,"E coli wild type; AG104 Wild type, Table 2 (Example 3), read-out: MIC E coli AG104 Wild type",2 to 4 µg/mL
same,MIC,"E coli wild type; ATCC25922, strain AG212 E. coli (ATCC25922), read-out: MIC AG212 E. coli",4 µg/mL
same,MIC,"E coli wild type; WT, Table 4 (Example 3), read-out: MIC E. coli WT",2 to 4 µg/mL
same,MIC,"E coli wild type; WT, Table 5 (Example 3), read-out: MIC E. coli WT",2 to 4 µg/mL
same,MIC,"E coli wild type; clinical isolate AG001, Table 1 (Example 3), read-out: MIC E coli AG001",16 µg/mL
same,MIC,"E coli wild type; clinical isolate AG003, Table 1 (Example 3), read-out: MIC E coli AG003",16 µg/mL
same,MIC,"E coli wild type; clinical isolate AG055, Table 1 (Example 3), read-out: MIC E coli AG055",16 µg/mL
same,Selectivity for Binding to the Bacterial Ribosome over the Cytosolic Ribosome,[8]; Table 3 (Example 3),1264
same,IC50,"[8]; cytosolic, Table 4 (Example 3), read-out: IC50 Cyt",38 µM
same,Selectivity for Binding to the Bacterial Ribosome over the Mitochondrial Ribosome,[5]; Table 3 (Example 3),3151
same,IC50,"[5]; mitochondrial, Table 4 (Example 3), read-out: IC50 Mit",95 µM
same,MIC,[9]; read-out: MIC AG290 E. cloacae,2 µg/mL
"NC[C@@H]1O[C@H](O[C@H]2[C@@H](O)[C@H](O[C@@H]3[C@@H](O)[C@H](N)C[C@H](N)[C@H]3O[C@H]3O[C@H](CO)[C@@H](O)C[C@H]3N)O[C@@H]2CO)[C@H](N)[C@@H](O)[C@@H]1O [Lividomycin B, lividomycin B, reference compound]",MIC E coli AG007 ANT(3″) AAC(3)-I,"[1]; AG007 ANT(3″) AAC(3)-I, Table 2 (Example 1)",4 µg/mL
same,MIC E coli AG103 ArmA,"[1]; AG103 ArmA, Table 2 (Example 1)",16 µg/mL
same,MIC E coli AG163/164 APH(3′)-Ia,"[1]; AG163/164 APH(3′)-Ia, Table 2 (Example 1)",>128 µg/mL
same,MIC E coli AG166 APH(3′)-IIa,"[1]; AG166 APH(3′)-IIa, Table 2 (Example 1)",4 to 8 µg/mL
same,MIC APH(3)-VI,"[1]; APH(3)-VI, Table 3 (Example 1)",2 µg/mL
same,MIC APH(3′)-I,"[1]; APH(3′)-I, Table 3 (Example 1)",>64 µg/mL
same,MIC APH(3′)-II,"[1]; APH(3′)-II, Table 3 (Example 1)",2 µg/mL
same,MIC APH(3′)-III,"[1]; APH(3′)-III, Table 3 (Example 1)",>64 µg/mL
same,MIC AG003 E. coli AAC(3)-II,[1],4 µg/mL
same,MIC AG163 E. coli APH(3′)-I,"[1]; clinical isolate AG163 APH(3′)-I, Table 2 (Example 4)",>128 µg/mL
same,MIC AG166 E. coli APH(3′)-II,"[1]; clinical isolate AG166 APH(3′)-II, Table 2 (Example 4)",4 to 8 µg/mL
same,MIC AG037 E. coli APH(3′)-III,"[1]; engineered strain AG037 APH(3′)-III, Table 2 (Example 4)",>128 µg/mL
same,MIC pH421 E. coli APH(3′)-I,"[1]; engineered strain pH421 APH(3′)-I, Table 2 (Example 4)",>64 μg/ml
same,MIC pH422 E. coli APH(3′)-II,"[1]; engineered strain pH422 APH(3′)-II, Table 2 (Example 4)",2 μg/ml
same,MIC pH423 E. coli APH(3′)-VI,"[1]; engineered strain pH423 APH(3′)-VI, Table 2 (Example 4)",2 μg/ml
same,MIC SZ380 M. smegmatis,M. smegmatis SZ380; strain SZ380 Mycobacterium smegmatis,0.5 µg/mL
same,MIC AG215 K. pneumon,[6],2 µg/mL
same,MIC AG031 P. aer. APH(3′)-II,"P aeruginosa; clinical isolate AG031, APH(3′)-II",16 µg/mL
same,MIC AG032 P. aer. APH(3′)-II,"P aeruginosa; clinical isolate AG032, APH(3′)-II",>128 µg/mL
same,MIC50 P aeruginosa AG31,"P aeruginosa; strain AG31, Table 1 (Example 1)",16 µg/mL
same,MIC50 P aeruginosa AG32,"P aeruginosa; strain AG32, Table 1 (Example 1)",>128 µg/mL
same,MIC50 P aeruginosa AG33,"P aeruginosa; strain AG33, Table 1 (Example 1)",128 µg/mL
same,MIC50 P aeruginosa AG86,"P aeruginosa; strain AG86, Table 1 (Example 1)",128 µg/mL
same,MIC AG220 P. aerugin,P aeruginosa; strain AG220 Pseudomonas aeruginosa ATCC27853,4 µg/mL
same,MIC AG038 MRSA,MRSA; clinical isolate AG038,4 µg/mL
same,MIC AG039 MRSA AAC(6′)-I ANT(4′)-I,MRSA,>128 µg/mL
same,MIC AG042 MRSA AAC(6′)-I ANT(4′)-I APH(2′),MRSA,>128 µg/mL
same,MIC AG044 MRSA,MRSA; clinical isolate AG044,4 to 8 µg/mL
same,MIC50 MRSA AG38,"MRSA; strain AG38, Table 1 (Example 1)",4 µg/mL
same,MIC50 MRSA AG39,"MRSA; strain AG39, Table 1 (Example 1)",>128 µg/mL
same,MIC50 MRSA AG42,"MRSA; strain AG42, Table 1 (Example 1)",>128 µg/mL
same,MIC50 MRSA AG44,"MRSA; strain AG44, Table 1 (Example 1)",4 to 8 µg/mL
same,IC50,[3]; [10],40 nM
same,IC50,"[3]; bacterial ribosome, Table 3 (Example 1), read-out: IC50 Bac",40 nM
same,MIC AG225 A. baumannii,[7],4 µg/mL
same,MIC E coli AG006 wt,"E coli wild type; AG006 wt, Table 2 (Example 1)",1 to 2 µg/mL
same,MIC E coli AG102 wt,"E coli wild type; AG102 wt, Table 2 (Example 1)",2 µg/mL
same,MIC E coli AG160 wt,"E coli wild type; AG160 wt, Table 2 (Example 1)",4 µg/mL
same,MIC WT,"E coli wild type; WT, Table 3 (Example 1)",2 µg/mL
same,MIC AG001 E. coli WT,E coli wild type,4 µg/mL
same,MIC AG055 E. coli WT,E coli wild type,2 µg/mL
same,MIC AG160 E. coli WT,"E coli wild type; clinical isolate AG160 WT, Table 2 (Example 4)",4 µg/mL
same,MIC pH430 E. coli WT,"E coli wild type; engineered strain pH430 WT, Table 2 (Example 4)",2 μg/ml
same,MIC50 E coli AG01,"E coli wild type; strain AG01, Table 1 (Example 1)",16 µg/mL
same,MIC50 E coli AG03,"E coli wild type; strain AG03, Table 1 (Example 1)",8 to 16 µg/mL
same,MIC50 E coli AG55,"E coli wild type; strain AG55, Table 1 (Example 1)",16 µg/mL
same,MIC AG212 E. coli,E coli wild type; strain AG212 E. coli (ATCC25922),4 µg/mL
same,IC50,[4],25 µM
same,IC50,"[8]; cytosolic, Table 3 (Example 1), read-out: IC50 Cyt",53 µM
same,IC50,"[8]; ribosomes with a human cytosolic decoding site, read-out: IC50 Cytosolic",53 µM
same,IC50,"[5]; mitochondrial, Table 3 (Example 1), read-out: IC50 Mit",109 µM
same,IC50,[5]; [11],109 µM
same,MIC AG290 E. cloacae,[9],2 µg/mL

# — patent US11466044B2 (WAYNE STATE UNIVERSITY, priority 2017, dated 2022)
